Results as given in US9790228B2, “Heterocyclic kinase inhibitors” (Intellikine LLC, priority 2008, dated 2017).

Experiments:
p110β/p85α = p110β/p85α (Homo sapiens, UniProt P42338); assay: PI3K β inhibition assay (TLC lipid kinase or HTRF); type: biochemical; details: read-out: PI3K β IC50
Procedure, shortened: (§1)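 IC50 from TLC lipid kinase assay (25 mM HEPES pH 7.4, 10 mM MgCl2, 100 μg/ml phosphatidylinositol, 10 or 100 μM γ-32P-ATP, 5 min RT, phosphorimager) at 10–12 two-fold dilutions, or HTRF (10 μM PIP2, 10 μM ATP, 1 h RT) measuring PIP3 by TR-FRET; 2% DMSO final.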

Balb/c splenic B cells = assay: B cell activation and proliferation assay (Alamar Blue); type: cell-based, mouse; details: Mus musculus, B-cell
Procedure, shortened: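 Purified Balb/c splenic B cells, 50,000/well, pretreated with compound 30 min (0.2% DMSO), then stimulated with 10 ug/ml LPS or 5 ug/ml anti-IgM F(ab′)2 plus 2 ng/ml IL4 (cocktail concentrations) for 72 h at 37 °C. Alamar Blue 5 h, fluorescence 560/590 nm; IC50/EC50 calculated.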

p110α/p85α = p110α/p85α (Homo sapiens (Human), UniProt P42336); assay: PI3K α inhibition assay (TLC lipid kinase or HTRF); type: biochemical
Sequence of p110α/p85α (P42336 whole entry): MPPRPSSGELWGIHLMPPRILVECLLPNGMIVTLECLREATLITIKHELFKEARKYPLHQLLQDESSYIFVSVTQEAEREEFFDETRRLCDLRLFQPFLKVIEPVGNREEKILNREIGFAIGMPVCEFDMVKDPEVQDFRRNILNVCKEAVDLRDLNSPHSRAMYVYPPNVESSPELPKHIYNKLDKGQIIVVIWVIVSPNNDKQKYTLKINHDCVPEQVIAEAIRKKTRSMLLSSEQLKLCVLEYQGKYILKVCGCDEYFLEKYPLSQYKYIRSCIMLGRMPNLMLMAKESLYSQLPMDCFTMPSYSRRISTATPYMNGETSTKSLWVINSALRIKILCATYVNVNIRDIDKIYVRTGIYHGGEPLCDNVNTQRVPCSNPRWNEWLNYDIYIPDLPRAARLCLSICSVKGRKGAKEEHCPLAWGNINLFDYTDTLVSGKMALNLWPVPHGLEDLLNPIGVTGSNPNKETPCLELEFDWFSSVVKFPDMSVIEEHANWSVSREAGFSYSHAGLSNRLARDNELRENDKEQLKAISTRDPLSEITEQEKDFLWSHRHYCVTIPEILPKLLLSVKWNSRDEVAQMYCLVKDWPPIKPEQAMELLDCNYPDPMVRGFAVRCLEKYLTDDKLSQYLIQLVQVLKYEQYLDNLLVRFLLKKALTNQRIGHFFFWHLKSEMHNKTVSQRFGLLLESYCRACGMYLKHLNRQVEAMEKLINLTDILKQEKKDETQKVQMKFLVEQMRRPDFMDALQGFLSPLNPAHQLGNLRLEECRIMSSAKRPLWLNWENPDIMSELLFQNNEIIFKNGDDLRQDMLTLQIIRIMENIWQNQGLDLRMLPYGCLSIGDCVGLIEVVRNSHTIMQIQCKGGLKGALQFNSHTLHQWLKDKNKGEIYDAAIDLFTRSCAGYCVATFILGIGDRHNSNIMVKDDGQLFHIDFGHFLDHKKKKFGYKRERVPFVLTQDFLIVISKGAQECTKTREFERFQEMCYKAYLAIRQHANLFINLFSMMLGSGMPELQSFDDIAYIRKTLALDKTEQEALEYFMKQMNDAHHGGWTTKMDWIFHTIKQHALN
Sequence of p110α/p85α (P27986 whole entry partner): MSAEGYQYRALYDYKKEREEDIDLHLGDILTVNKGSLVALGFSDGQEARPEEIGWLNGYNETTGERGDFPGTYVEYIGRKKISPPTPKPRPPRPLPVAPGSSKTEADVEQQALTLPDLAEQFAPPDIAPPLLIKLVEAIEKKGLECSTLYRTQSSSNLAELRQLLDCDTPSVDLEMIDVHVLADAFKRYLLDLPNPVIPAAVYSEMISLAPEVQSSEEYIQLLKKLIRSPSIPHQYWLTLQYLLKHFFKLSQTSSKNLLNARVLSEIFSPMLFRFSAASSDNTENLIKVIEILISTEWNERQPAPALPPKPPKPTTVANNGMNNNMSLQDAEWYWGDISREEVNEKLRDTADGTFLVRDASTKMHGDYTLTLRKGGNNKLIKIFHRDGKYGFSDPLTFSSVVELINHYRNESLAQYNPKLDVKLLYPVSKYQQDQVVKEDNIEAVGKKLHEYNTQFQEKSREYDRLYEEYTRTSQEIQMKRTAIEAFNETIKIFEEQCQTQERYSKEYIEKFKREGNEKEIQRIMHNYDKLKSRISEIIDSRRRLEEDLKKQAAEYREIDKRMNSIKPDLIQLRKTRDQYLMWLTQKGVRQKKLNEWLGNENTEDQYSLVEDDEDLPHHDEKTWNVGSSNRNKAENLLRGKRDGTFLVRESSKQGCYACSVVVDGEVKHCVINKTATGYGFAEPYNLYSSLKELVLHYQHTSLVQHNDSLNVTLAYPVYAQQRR
Procedure, shortened: as §1

p110γ = p110γ (Homo sapiens (Human), UniProt P48736); assay: PI3K γ inhibition assay (TLC lipid kinase or HTRF); type: biochemical
Sequence of p110γ (P48736 whole entry): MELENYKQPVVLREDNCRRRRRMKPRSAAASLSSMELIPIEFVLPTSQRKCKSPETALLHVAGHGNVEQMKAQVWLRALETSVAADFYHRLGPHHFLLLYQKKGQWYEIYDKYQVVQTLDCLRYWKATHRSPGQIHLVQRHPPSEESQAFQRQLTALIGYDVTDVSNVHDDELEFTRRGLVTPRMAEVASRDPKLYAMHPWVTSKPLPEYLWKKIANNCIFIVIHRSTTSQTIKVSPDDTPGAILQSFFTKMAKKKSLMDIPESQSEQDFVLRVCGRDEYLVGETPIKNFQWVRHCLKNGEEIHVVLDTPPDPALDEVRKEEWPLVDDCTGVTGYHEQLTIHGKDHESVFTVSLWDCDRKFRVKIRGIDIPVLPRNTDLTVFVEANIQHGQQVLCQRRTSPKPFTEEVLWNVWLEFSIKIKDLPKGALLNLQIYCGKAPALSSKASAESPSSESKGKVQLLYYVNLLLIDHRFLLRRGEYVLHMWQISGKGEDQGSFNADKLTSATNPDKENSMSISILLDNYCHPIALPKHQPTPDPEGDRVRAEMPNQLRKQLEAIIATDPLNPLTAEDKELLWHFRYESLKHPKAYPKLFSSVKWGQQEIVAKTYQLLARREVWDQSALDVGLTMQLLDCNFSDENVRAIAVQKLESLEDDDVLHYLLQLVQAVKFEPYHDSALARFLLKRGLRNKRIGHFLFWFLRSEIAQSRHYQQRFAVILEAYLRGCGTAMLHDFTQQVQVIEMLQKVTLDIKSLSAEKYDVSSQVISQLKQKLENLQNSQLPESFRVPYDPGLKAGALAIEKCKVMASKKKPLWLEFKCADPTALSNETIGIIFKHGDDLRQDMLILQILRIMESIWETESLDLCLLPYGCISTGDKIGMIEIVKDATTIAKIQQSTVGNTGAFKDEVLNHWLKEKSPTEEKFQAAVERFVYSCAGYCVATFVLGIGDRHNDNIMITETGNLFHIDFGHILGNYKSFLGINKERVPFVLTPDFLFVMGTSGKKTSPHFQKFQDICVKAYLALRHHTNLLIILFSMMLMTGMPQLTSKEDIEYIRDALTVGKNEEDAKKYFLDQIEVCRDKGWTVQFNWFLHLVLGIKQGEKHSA
Procedure, shortened: as §1

p110δ/p85α = p110δ/p85α (Homo sapiens (Human), UniProt O00329); assay: PI3K δ inhibition assay (TLC lipid kinase or HTRF); type: biochemical
Sequence of p110δ/p85α (O00329 whole entry): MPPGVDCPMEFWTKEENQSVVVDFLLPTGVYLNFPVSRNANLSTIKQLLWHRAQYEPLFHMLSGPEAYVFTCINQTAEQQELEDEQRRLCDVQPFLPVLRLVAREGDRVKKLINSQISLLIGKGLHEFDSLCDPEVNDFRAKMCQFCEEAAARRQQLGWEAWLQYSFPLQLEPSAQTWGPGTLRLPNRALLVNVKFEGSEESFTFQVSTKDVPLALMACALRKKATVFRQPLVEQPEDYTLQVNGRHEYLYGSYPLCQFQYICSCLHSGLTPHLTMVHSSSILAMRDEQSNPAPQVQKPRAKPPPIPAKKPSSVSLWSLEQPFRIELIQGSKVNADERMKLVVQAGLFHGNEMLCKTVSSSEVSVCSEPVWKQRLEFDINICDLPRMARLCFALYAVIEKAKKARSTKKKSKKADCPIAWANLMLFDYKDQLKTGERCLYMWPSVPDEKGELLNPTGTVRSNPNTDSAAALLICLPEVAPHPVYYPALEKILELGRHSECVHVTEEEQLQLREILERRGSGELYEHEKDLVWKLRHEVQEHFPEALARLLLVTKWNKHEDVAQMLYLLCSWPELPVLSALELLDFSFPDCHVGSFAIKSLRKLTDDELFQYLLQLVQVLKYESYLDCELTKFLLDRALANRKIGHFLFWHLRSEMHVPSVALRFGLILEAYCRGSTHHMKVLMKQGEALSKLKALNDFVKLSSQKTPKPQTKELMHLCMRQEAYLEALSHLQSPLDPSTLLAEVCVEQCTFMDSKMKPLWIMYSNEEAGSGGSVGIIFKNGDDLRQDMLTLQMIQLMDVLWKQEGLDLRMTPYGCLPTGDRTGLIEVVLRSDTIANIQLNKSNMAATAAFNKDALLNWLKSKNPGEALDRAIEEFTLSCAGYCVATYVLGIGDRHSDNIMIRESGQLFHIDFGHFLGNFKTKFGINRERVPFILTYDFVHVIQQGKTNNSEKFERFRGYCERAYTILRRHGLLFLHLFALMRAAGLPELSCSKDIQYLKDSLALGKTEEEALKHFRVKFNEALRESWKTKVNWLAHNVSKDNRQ
Sequence of p110δ/p85α (P27986 whole entry partner): as the sequence (P27986 whole entry partner) above
Procedure, shortened: as §1

Sequence of p110β/p85α (P42338 whole entry, looked up): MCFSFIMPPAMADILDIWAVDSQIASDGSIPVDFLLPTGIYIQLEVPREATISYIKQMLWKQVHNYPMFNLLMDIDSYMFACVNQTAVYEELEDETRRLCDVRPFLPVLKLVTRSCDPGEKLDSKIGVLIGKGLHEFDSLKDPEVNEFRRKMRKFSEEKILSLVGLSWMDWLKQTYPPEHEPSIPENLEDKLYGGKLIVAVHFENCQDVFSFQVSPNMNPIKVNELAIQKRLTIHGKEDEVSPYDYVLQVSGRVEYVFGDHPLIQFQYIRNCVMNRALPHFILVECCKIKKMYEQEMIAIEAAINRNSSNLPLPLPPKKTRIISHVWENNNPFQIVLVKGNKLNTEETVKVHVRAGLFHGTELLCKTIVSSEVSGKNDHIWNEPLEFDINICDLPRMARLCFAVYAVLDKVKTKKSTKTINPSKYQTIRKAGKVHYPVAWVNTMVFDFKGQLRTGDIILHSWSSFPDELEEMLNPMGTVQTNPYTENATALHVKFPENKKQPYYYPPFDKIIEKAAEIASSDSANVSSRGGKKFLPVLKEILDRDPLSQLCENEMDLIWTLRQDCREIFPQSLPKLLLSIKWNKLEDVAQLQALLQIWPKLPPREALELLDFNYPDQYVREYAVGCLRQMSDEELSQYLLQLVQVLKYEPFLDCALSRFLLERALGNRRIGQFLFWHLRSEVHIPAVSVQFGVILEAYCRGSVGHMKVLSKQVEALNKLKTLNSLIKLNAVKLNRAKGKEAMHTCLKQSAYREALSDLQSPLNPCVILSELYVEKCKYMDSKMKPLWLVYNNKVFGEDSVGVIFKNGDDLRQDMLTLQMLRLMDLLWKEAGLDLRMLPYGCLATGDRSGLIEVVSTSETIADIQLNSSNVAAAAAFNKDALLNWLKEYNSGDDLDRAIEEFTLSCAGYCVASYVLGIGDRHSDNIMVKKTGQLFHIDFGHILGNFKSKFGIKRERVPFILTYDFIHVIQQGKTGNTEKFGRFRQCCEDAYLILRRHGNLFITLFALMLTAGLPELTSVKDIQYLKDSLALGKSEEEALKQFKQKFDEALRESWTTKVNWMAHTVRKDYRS

SMILES	IC50 (p110β/p85α)	IC50 (p110α/p85α)	IC50 (p110γ)	IC50 (p110δ/p85α)	EC50 (Balb/c splenic B cells)
Cc1ccccc1-c1nc2ccccc2cc1Cn1nc(-c2cccc(O)c2)c2c(N)ncnc21 [Compound 5]	> 1000 nM	> 1000 nM	100 to 1000 nM	< 100 nM	100 to 1000 nM
Cc1ccncc1-c1nc2ccccc2cc1Cn1nc(-c2cccc(O)c2)c2c(N)ncnc21 [Compound 78]	> 1000 nM	> 1000 nM	> 1000 nM	< 100 nM	100 to 1000 nM
CN1CCN(c2nc3ccccc3cc2Cn2nc(-c3cc(O)cc(F)c3)c3c(N)ncnc32)CC1 [Compound 50]	< 100 nM	> 1000 nM	> 1000 nM	< 100 nM	< 100 nM
Nc1ncnc2c1c(-c1cccc(O)c1)nn2Cc1cc2ccccc2nc1N1CCOCC1 [Compound 64]	> 1000 nM	> 1000 nM	100 to 1000 nM	< 100 nM	< 100 nM
CN1CCN(c2nc3ccccc3cc2Cn2nc(-c3cccc(O)c3)c3c(N)ncnc32)CC1 [Compound 43]	100 to 1000 nM	> 1000 nM	> 1000 nM	< 100 nM	100 to 1000 nM
CCC(c1cc2ccccc2nc1N1CCCC1)n1nc(-c2cccc(O)c2)c2c(N)ncnc21 (stereo not shown) [Compound 39]	> 1000 nM	> 1000 nM	> 1000 nM	< 100 nM	< 100 nM
Nc1ncnc2c1c(I)nn2Cc1cc2ccccc2nc1N1CCCC1 [Compound 1]	> 1000 nM	> 1000 nM	< 100 nM	< 100 nM	100 to 1000 nM
Cc1ccccc1-c1nc2ccccc2cc1Cn1nc(-c2cc(O)cc(F)c2)c2c(N)ncnc21 [Compound 4]	> 1000 nM	> 1000 nM	< 100 nM	< 100 nM	< 100 nM
Nc1ncnc2c1c(-c1cc(O)cc(F)c1)nn2Cc1cc2ccccc2nc1N1CCOCC1 [Compound 63]	> 1000 nM	> 1000 nM	100 to 1000 nM	< 100 nM	< 100 nM
CCN(CC)c1nc2ccccc2cc1Cn1nc(-c2cc(O)cc(F)c2)c2c(N)ncnc21 [Compound 68]	100 to 1000 nM	> 1000 nM	100 to 1000 nM	< 100 nM	< 100 nM
Nc1ncnc2c1c(-c1cc(O)cc(F)c1)nn2Cc1cc2ccccc2nc1N1CCCC1 [Compound 2]	100 to 1000 nM	> 1000 nM	< 100 nM	< 100 nM	< 100 nM
CC(=O)Nc1nc2ccc(-c3nn(Cc4cc5ccccc5nc4-c4ccccc4F)c4ncnc(N)c34)cc2s1 [Compound 83]	> 1000 nM	> 1000 nM	< 100 nM	< 100 nM	< 100 nM
Nc1ncnc2c1c(-c1cc(O)cc(F)c1)nn2Cc1cc2ccccc2nc1NCCN1CCOCC1 [Compound 75]	> 1000 nM	> 1000 nM	> 1000 nM	< 100 nM	< 100 nM
Cc1ccccc1-c1nc2ccccc2nc1Cn1nc(-c2cc(O)cc(F)c2)c2c(N)ncnc21 [Compound 107]	> 1000 nM	> 1000 nM	> 1000 nM	< 100 nM	< 100 nM
Nc1ncnc2c1c(-c1cc(O)cc(F)c1)nn2Cc1nc2ccccc2nc1N1CCCC1 [Compound 104]	> 1000 nM	> 1000 nM	100 to 1000 nM	< 100 nM	< 100 nM
Nc1nc2ccc(-c3nn(Cc4cc5ccccc5nc4-c4ccccc4)c4ncnc(N)c34)cc2s1 [Compound 94]	> 1000 nM	> 1000 nM	< 100 nM	< 100 nM	100 to 1000 nM
Nc1ncnc2c1c(-c1ccc3cn[nH]c3c1)nn2CC1=Cc2ccccc2NC1N1CCCC1 (stereo not shown) [Compound 81]	> 1000 nM	> 1000 nM	> 1000 nM	< 100 nM	100 to 1000 nM
Nc1ccnc2c1c(-c1cccc(O)c1)nn2Cc1cc2ccccc2nc1-c1cccnc1 [Compound 77]	> 1000 nM	> 1000 nM	> 1000 nM	< 100 nM	< 100 nM

Continued, in another order:

IC50 (p110β/p85α)	IC50 (p110α/p85α)	IC50 (p110γ)	IC50 (p110δ/p85α)	SMILES	EC50 (Balb/c splenic B cells)
> 1000 nM	100 to 1000 nM	< 100 nM	< 100 nM	Nc1nc2cc(-c3nn(Cc4cc5ccccc5nc4N4CCOCC4)c4ncnc(N)c34)ccc2o1 [Compound 141]	< 100 nM
> 1000 nM	> 1000 nM	< 100 nM	< 100 nM	Nc1ccc2cc(-c3nn(Cc4cc5ccccc5nc4-c4ccccc4F)c4ncnc(N)c34)ccc2n1 [Compound 136]	100 to 1000 nM
> 1000 nM	> 1000 nM	< 100 nM	< 100 nM	Nc1nc2cc(-c3nn(Cc4cc5ccccc5nc4-c4ccccc4F)c4ncnc(N)c34)ccc2o1 [Compound 137]	100 to 1000 nM
> 1000 nM	100 to 1000 nM	< 100 nM	< 100 nM	Cc1ccccc1-c1nc2ccccc2cc1Cn1nc(-c2ccc3nc(N)ccc3c2)c2c(N)ncnc21 [Compound 131]	100 to 1000 nM
> 1000 nM	> 1000 nM	> 1000 nM	100 to 1000 nM	Nc1ncnc2c1c(-c1cnn(CCO)c1)nn2Cc1cc2ccccc2nc1-c1ccccc1 [Compound 179]	100 to 1000 nM
< 100 nM	< 100 nM	< 100 nM	< 100 nM	CC(=O)Nc1nc2ccc(-c3nn(Cc4cc5ccccc5nc4N(C)C)c4ncnc(N)c34)cc2s1 [Compound 130]	< 100 nM
> 1000 nM	> 1000 nM	100 to 1000 nM	< 100 nM	CC(C)Oc1nc2ccccc2cc1Cn1nc(-c2cc(O)cc(F)c2)c2c(N)ncnc21 [Compound 156]	100 to 1000 nM
> 1000 nM	> 1000 nM	< 100 nM	< 100 nM	Nc1ncnc2ccc(-c3nn(Cc4cc5ccccc5nc4-c4ccccc4)c4ncnc(N)c34)cc12 [Compound 146]	100 to 1000 nM
> 1000 nM	> 1000 nM	< 100 nM	< 100 nM	Cc1ccccc1-c1nc2ccccc2cc1Cn1nc(-c2ccc3ncnc(N)c3c2)c2c(N)ncnc21 [Compound 134]	100 to 1000 nM
< 100 nM	< 100 nM	< 100 nM	< 100 nM	Nc1ncc2cc(-c3nn(Cc4cc5ccccc5nc4N4CCOCC4)c4ncnc(N)c34)ccc2n1 [Compound 139]	< 100 nM
> 1000 nM	100 to 1000 nM	< 100 nM	< 100 nM	CC(C)Oc1nc2ccccc2cc1Cn1nc(-c2ccc3nc(N)sc3c2)c2c(N)ncnc21 [Compound 159]	> 1000 nM
> 1000 nM	100 to 1000 nM	< 100 nM	< 100 nM	Nc1ccc2cc(-c3nn(Cc4cc5ccccc5nc4-c4ccccc4)c4ncnc(N)c34)ccc2n1 [Compound 144]	< 100 nM
> 1000 nM	100 to 1000 nM	< 100 nM	< 100 nM	CC(=O)Nc1nc2ccc(-c3nn(Cc4cc5ccccc5nc4-n4cnc(C)c4)c4ncnc(N)c34)cc2s1 [Compound 171]	< 100 nM
> 1000 nM	100 to 1000 nM	< 100 nM	< 100 nM	Nc1nc2cc(-c3nn(Cc4cc5ccccc5nc4-c4ccccc4F)c4ncnc(N)c34)ccc2[nH]1 [Compound 152]	100 to 1000 nM
